{
  "source": "PubChem BioAssay AID1259407",
  "about": "(Chemical Carcinogenesis Research Information System (CCRIS), 2018)",
  "tested_on": "CCRIS mutagenicity, Ames/micronucleus/aberration tests",
  "test": "CCRIS mutagenicity studies",
  "note": "The source made the active and inactive calls. How the calls were made is not given here.",
  "data": [
    {"smiles": "Oc1cccc2ccc3[nH]c4ccc5ccccc5c4c3c12", "values": [
      {"measurement": "mutagenic call", "setting": "Test System: AMES SALMONELLA TYPHIMURIUM, Strain/Indicator: TM677, Metabolic Activation: NONE, Method: PREINCUBATION", "result": "inactive; negative"},
      {"measurement": "mutagenic call", "setting": "Test System: AMES SALMONELLA TYPHIMURIUM, Strain/Indicator: TM677, Metabolic Activation: RAT, LIVER, S-9, 3-METHYLCHOLANTHRENE (1%), Method: PREINCUBATION", "result": "inactive; negative"},
      {"measurement": "mutagenic call", "setting": "Test System: AMES SALMONELLA TYPHIMURIUM, Strain/Indicator: TM677, Metabolic Activation: RAT, LIVER, S-9, 3-METHYLCHOLANTHRENE (10%), Method: PREINCUBATION", "result": "inactive; negative"},
      {"measurement": "mutagenic call", "setting": "Test System: AMES SALMONELLA TYPHIMURIUM, Strain/Indicator: TM677, Metabolic Activation: RAT, LIVER, S-9, AROCLOR 1254 (10%), Method: PREINCUBATION", "result": "inactive; negative"}
    ]},
    {"smiles": "Cn1c(N)nc2nc3ncccc3cc21", "values": [
      {"measurement": "mutagenic call", "setting": "Test System: AMES SALMONELLA TYPHIMURIUM, Strain/Indicator: TA98, Metabolic Activation: RAT, LIVER, S-9, AROCLOR 1254A, Method: STANDARD PLATE", "result": "inactive; negative"},
      {"measurement": "mutagenic call", "setting": "Test System: AMES SALMONELLA TYPHIMURIUM, Strain/Indicator: YG1024, Metabolic Activation: RAT, LIVER, S-9, AROCLOR 1254A, Method: STANDARD PLATE", "result": "active; positive"}
    ]},
    {"smiles": "O=C(OCc1ccccc1)c1cccc2cccnc12", "values": [
      {"measurement": "mutagenic call", "setting": "Test System: AMES SALMONELLA TYPHIMURIUM, Strain/Indicator: TA98, Metabolic Activation: NONE, Method: STANDARD PLATE", "result": "inactive; negative"},
      {"measurement": "mutagenic call", "setting": "Test System: AMES SALMONELLA TYPHIMURIUM, Strain/Indicator: TA98, Metabolic Activation: RAT, LIVER, S-9, AROCLOR 1254, Method: STANDARD PLATE", "result": "inactive; negative"},
      {"measurement": "mutagenic call", "setting": "Test System: AMES SALMONELLA TYPHIMURIUM, Strain/Indicator: TA100, Metabolic Activation: NONE, Method: STANDARD PLATE", "result": "inactive; negative"},
      {"measurement": "mutagenic call", "setting": "Test System: AMES SALMONELLA TYPHIMURIUM, Strain/Indicator: TA100, Metabolic Activation: RAT, LIVER, S-9, AROCLOR 1254, Method: STANDARD PLATE", "result": "inactive; negative"},
      {"measurement": "mutagenic call", "setting": "Test System: AMES SALMONELLA TYPHIMURIUM, Strain/Indicator: TA1535, Metabolic Activation: NONE, Method: STANDARD PLATE", "result": "inactive; negative"},
      {"measurement": "mutagenic call", "setting": "Test System: AMES SALMONELLA TYPHIMURIUM, Strain/Indicator: TA1535, Metabolic Activation: RAT, LIVER, S-9, AROCLOR 1254, Method: STANDARD PLATE", "result": "inactive; negative"},
      {"measurement": "mutagenic call", "setting": "Test System: AMES SALMONELLA TYPHIMURIUM, Strain/Indicator: TA1537, Metabolic Activation: NONE, Method: STANDARD PLATE", "result": "inactive; negative"},
      {"measurement": "mutagenic call", "setting": "Test System: AMES SALMONELLA TYPHIMURIUM, Strain/Indicator: TA1537, Metabolic Activation: RAT, LIVER, S-9, AROCLOR 1254, Method: STANDARD PLATE", "result": "inactive; negative"}
    ]},
    {"smiles": "Nc1cc(S(=O)(=O)O)cc2cc(S(=O)(=O)O)cc(O)c12", "values": [
      {"measurement": "mutagenic call", "setting": "Test System: AMES SALMONELLA TYPHIMURIUM, Strain/Indicator: TA98, Metabolic Activation: NONE, Method: PREINCUBATION", "result": "inactive; negative"},
      {"measurement": "mutagenic call", "setting": "Test System: AMES SALMONELLA TYPHIMURIUM, Strain/Indicator: TA98, Metabolic Activation: RAT LIVER S-9, PHENOBARBITAL AND BETA-NAPHTHOFLAVONE, Method: PREINCUBATION", "result": "inactive; negative"},
      {"measurement": "mutagenic call", "setting": "Test System: AMES SALMONELLA TYPHIMURIUM, Strain/Indicator: TA100, Metabolic Activation: NONE, Method: PREINCUBATION", "result": "inactive; negative"},
      {"measurement": "mutagenic call", "setting": "Test System: AMES SALMONELLA TYPHIMURIUM, Strain/Indicator: TA100, Metabolic Activation: RAT LIVER S-9, PHENOBARBITAL AND BETA-NAPHTHOFLAVONE, Method: PREINCUBATION", "result": "inactive; negative"},
      {"measurement": "mutagenic call", "setting": "Test System: AMES SALMONELLA TYPHIMURIUM, Strain/Indicator: TA1535, Metabolic Activation: NONE, Method: PREINCUBATION", "result": "inactive; negative"},
      {"measurement": "mutagenic call", "setting": "Test System: AMES SALMONELLA TYPHIMURIUM, Strain/Indicator: TA1535, Metabolic Activation: RAT LIVER S-9, PHENOBARBITAL AND BETA-NAPHTHOFLAVONE, Method: PREINCUBATION", "result": "inactive; negative"},
      {"measurement": "mutagenic call", "setting": "Test System: AMES SALMONELLA TYPHIMURIUM, Strain/Indicator: TA1537, Metabolic Activation: NONE, Method: PREINCUBATION", "result": "inactive; negative"},
      {"measurement": "mutagenic call", "setting": "Test System: AMES SALMONELLA TYPHIMURIUM, Strain/Indicator: TA1537, Metabolic Activation: RAT LIVER S-9, PHENOBARBITAL AND BETA-NAPHTHOFLAVONE, Method: PREINCUBATION", "result": "inactive; negative"},
      {"measurement": "mutagenic call", "setting": "Test System: AMES SALMONELLA TYPHIMURIUM, Strain/Indicator: TA1538, Metabolic Activation: NONE, Method: PREINCUBATION", "result": "inactive; negative"},
      {"measurement": "mutagenic call", "setting": "Test System: AMES SALMONELLA TYPHIMURIUM, Strain/Indicator: TA1538, Metabolic Activation: RAT LIVER S-9, PHENOBARBITAL AND BETA-NAPHTHOFLAVONE, Method: PREINCUBATION", "result": "inactive; negative"},
      {"measurement": "mutagenic call", "setting": "Test System: E.COLI, Strain/Indicator: WP2UVRA, Metabolic Activation: NONE, Method: PREINCUBATION", "result": "inactive; negative"},
      {"measurement": "mutagenic call", "setting": "Test System: E.COLI, Strain/Indicator: WP2UVRA, Metabolic Activation: RAT LIVER S-9, PHENOBARBITAL AND BETA-NAPHTHOFLAVONE, Method: PREINCUBATION", "result": "inactive; negative"}
    ]},
    {"smiles": "CCCCC/C(C=O)=C/c1ccccc1", "values": [
      {"measurement": "mutagenic call", "setting": "Test System: AMES SALMONELLA TYPHIMURIUM, Strain/Indicator: TA97, Metabolic Activation: NONE, Method: PREINCUBATION", "result": "inactive; negative"},
      {"measurement": "mutagenic call", "setting": "Test System: AMES SALMONELLA TYPHIMURIUM, Strain/Indicator: TA97, Metabolic Activation: RAT, LIVER, S-9, AROCLOR 1254, Method: PREINCUBATION", "result": "inactive; negative"},
      {"measurement": "mutagenic call", "setting": "Test System: AMES SALMONELLA TYPHIMURIUM, Strain/Indicator: TA102, Metabolic Activation: NONE, Method: PREINCUBATION", "result": "inactive; negative"},
      {"measurement": "mutagenic call", "setting": "Test System: AMES SALMONELLA TYPHIMURIUM, Strain/Indicator: TA102, Metabolic Activation: RAT, LIVER, S-9, AROCLOR 1254, Method: PREINCUBATION", "result": "inactive; negative"}
    ]}
  ]
}
